Patent US8084431B2, “Method for inhibiting activation of macrophages, inhibiting formation of osteoclasts, inhibiting function of osteoclasts, and/or activating osteoblasts” (China Medical University, priority 2008, dated 2011)
Marks after values point to notes of the source that are not given here.

Columns and labels:
[1] = tested on: BALB/c mice with collagen-induced rheumatoid arthritis; experiment: Collagen-induced rheumatoid arthritis of BALB/c mice; assay type: in vivo; settings: for CD4/278 (ratio of Th2 cells) / CD19/45 (ratio of B cells) / the number of lymphocytes: inguinal lymph nodes; for IgE / IgG1 / TNF-α: serum
Experimental: BALB/c mice were purchased from the National Laboratory Animal Center, Taiwan. 200 μg of type-IT collagen (Sigma) was subcutaneously injected into the tails of the BALB/c mice to induce the rheumatoid arthritis, wherein type-II collagen was emulsified with a Freund's complete adjuvant (Sigma) previously. At the […], 200 μg of type-II collagen was subcutaneously injected into the tails of the BALB/c mice again, and type-II collagen was emulsified with a Freund's incomplete adjuvant (Sigma) previously. From the day of the second injection, the BALB/c mice were administrated orally with kinsenoside (100 or 300 mg/kg) daily for 21 days. After 21 days, the BALB/c mice were sacrificed, and the blood, inguinal lymph nodes, and soles comprising joints of the BALB/c mice were collected for assay.
The concentrations of TNF-α and antibodies IgE and IgG1 in the serum were determined with ELISA method. Antibodies IgE and IgG1 reagents were purchased form Bethyl, Montgomery, Tex., USA.
Lymph nodes were taken from the both sides of the groins of the BALB/c mice, and were sieved to produce a single suspended cell line. The number of lymphocytes was determined with a flow cytometer. In addition, B cells and Th2 cells were stained with antibodies CD19/45 and CD4/278 (eBioscience) to obtain the ratio of B cells and Th2 cells.
The mRNAs were extracted from the right soles and joints of the mice, and the expression of the mRNAs of TNF-α was analyzed with RT-PCR (Reverse Transcription-Polymerase Chain Reaction).

[2] = tested on: ovariectomized ICR mice; experiment: Osteoporosis of ovariectomized ICR mice; assay type: in vivo; settings: for bone volume/tissue volume / the number of trabecula: femur, micro computed tomography; for bone volume/tissue volume / the number of trabecula / CTx / osteocalcin: 3 weeks; for CTx / osteocalcin: serum
Experimental: First, the ovaries of ICR mice were removed. After 3 days, the ICR mice were administrated with various dosages (0, 100, and 300 mg/kg) of kinsenoside, respectively. Herein, the unit “mg/kg” means that the dosage (mg) required for each kilogram of the body weight of an animal. After 3 weeks, the ICR mice were sacrificed. ELISA was used to determine the content of osteocalcin and C-terminal cross-lined telopeptides of type I collagen (CTx) in serum. The reagents for determining osteocalcin and CTx were purchased from IDS Nordic A/S, Herlev, Danmarkids. The femurs of the sacrificed ICR mice were taken, and were photographed by a micro computed tomography (SkyScan 1076, Kontizh, Belgium). The computerized axial tomography is shown in FIG. 10, and the ratio of bone volume to tissue volume and the number of trabecula were analyzed with analysis software. Then, the femurs were decalcified and were frozen sectioned. Osteoclasts in the femurs were stained with a TRAP stain reagent.

[3] = tested on: macrophages RAW 264.7; experiment: NO release of LPS-induced macrophages RAW 264.7 (Griess reagent); assay type: cell-based; settings: 24 hours
Experimental: (§1) 24 hours later, the supernatant was collected, and the content of nitric oxide was determined with a Griess reagent (Sigma). After macrophages RAW 264.7 were scratched off the culture plates, proteins were extracted, and then the expression of nitric oxide synthase (iNOs), p65, and p50 (nuclear factor kappa B or NF-κB, transcription factor) was analyzed with the western blot method.

[4] = tested on: NF-κB; experiment: EMSA of NF-κB entering nuclei in RANKL-activated macrophages RAW 264.7; assay type: cell-based; settings: kinsenoside 10, 25, 50 μM, RANKL 50 ng/ml, 60 minutes, FIG. 7B and 7C
Description: EMSA (Electrophoresis Mobility Shift Assay) was used to observe the mechanism of the inhibition effect of kinsenoside on the formation of osteoclasts. It is known that RANKL may activate macrophages RAW 264.7 to make NF-κB enter nuclei to stimulate macrophages RAW 264.7 to differentiate into osteoclasts (see Wada T, Nakashima T, Hiroshi N, Penninger J M. 2006. RANKL-RANK signaling in osteoclastogenesis and bone disease. Trends Mol. Med. 12, 17-25).
The DNA sequences used in the EMSA assay are as follows:
The macrophages RAW 264.7 were incubated for 60 minutes, and then proteins in the nuclei were extracted to be analyzed with EMSA. Herein, the DNA sequences used in the EMSA assay are the same as the above experiment.

[5] = tested on: MC3T3-E1 cells; experiment: Alkaline phosphatase activity of MC3T3-E1 cells; assay type: cell-based
Experimental: ALP (alkaline phosphatase) is a molecular indicator or molecular marker for the early stage of the activation of the precursor cells of osteoblasts, and according to the activity of ALP, the activation situation of the precursor cells of osteoblasts can observed. […] The MC3T3-E1 cells were incubated for 3, 5, and 10 days respectively, and then proteins in the cells were extracted. A p-nitrophenyl phosphate liquid substrate system reagent (Sigma) was used to determine the activity of ALP, and the result is shown in Table 13.

[6] = tested on: nitric oxide synthase (iNOs), p65, and p50 (NF-κB); experiment: Western blot of iNOs, p65 and p50 in LPS-induced macrophages RAW 264.7; assay type: cell-based; settings: kinsenoside 10, 50, 100 μM
Experimental: as §1

[7] = tested on: ICR mice administrated with lipopolysaccharides; experiment: LPS-induced inflammatory cytokines in the blood of ICR mice (ELISA); assay type: in vivo; settings: LPS 40 mg/kg, 1 hour
Experimental: ICR mice were intraperitoneally administrated with various dosages (100 mg/kg or 300 mg/kg) of kinsenoside. 30 minutes later, the ICR mice were intraperitoneally administrated with 40 mg/kg of lipopolysaccharides. 1 hour later, the blood of the ICR mice was collected from the retro-orbital sinus, and the concentrations of TNF-α and IL-1β were determined with an ELISA (enzyme linked immunosorbent assay) reagent (eBioscience, Boston, Mass.).

[8] = kinsenoside 100 mg/kg oral daily for 21 days
[9] = kinsenoside 300 mg/kg oral daily for 21 days
[10] = kinsenoside 100 mg/kg intraperitoneal
[11] = kinsenoside 300 mg/kg intraperitoneal

O=C1C[C@@H](OC2OC(CO)C(O)C(O)C2O)CO1 (stereo partly drawn) [kinsenoside, 3-(R)-3-β-D-glucopyranosyloxy-butanolide]
CD4/278 (ratio of Th2 cells) [1, 8]: 8.0 ± 0.6 % | CD19/45 (ratio of B cells) [1, 8]: 19.3 ± 2.1 % | the number of lymphocytes [1, 8]: 3.3 ± 0.6* 10^5/ml | CD4/278 (ratio of Th2 cells) [1, 9]: 7.6 ± 0.6 % | CD19/45 (ratio of B cells) [1, 9]: 18.6 ± 3.6 % | the number of lymphocytes [1, 9]: 2.8 ± 1.0*** 10^5/ml | expression of mRNAs of TNF-α ([1]; right soles and joints, RT-PCR, kinsenoside 100 or 300 mg/kg oral, FIG. 5A and 5B): alleviates the expression of mRNAs of TNF-α | IgE [1, 8]: 0.15 ± 0.03 absorbance | IgG1 [1, 8]: 2.44 ± 0.05 absorbance | TNF-α [1, 8]: 825.9 ± 155.4* 10^−12 g/ml | IgE [1, 9]: 0.13 ± 0.04 absorbance | IgG1 [1, 9]: 2.41 ± 0.10 absorbance | TNF-α [1, 9]: 790.0 ± 194.1* 10^−12 g/ml | bone tissues of the femurs in micro computed tomography ([2]; compared to ICR mice that are not ovariectomized, FIG. 10): return to a normal state | bone volume/tissue volume ([2]; kinsenoside 100 mg/kg): 19.9 ± 1.5 % | the number of trabecula ([2]; kinsenoside 100 mg/kg): 12.2 ± 1.5 cm⁻¹ | bone volume/tissue volume ([2]; kinsenoside 300 mg/kg): 21.2 ± 2.2 % | the number of trabecula ([2]; kinsenoside 300 mg/kg): 12.8 ± 1.5 cm⁻¹ | CTx ([2]; kinsenoside 100 mg/kg): 29.7 ± 6.9 ng/mL | osteocalcin ([2]; kinsenoside 100 mg/kg): 191.2 ± 33.5 ng/mL | CTx ([2]; kinsenoside 300 mg/kg): 27.5 ± 3.1 ng/mL | osteocalcin ([2]; kinsenoside 300 mg/kg): 351.8 ± 80.5 ng/mL | the concentration of NO ([3]; kinsenoside 10 μM): 15.5 ± 3.7 µM | the concentration of NO ([3]; kinsenoside 50 μM): 12.0 ± 3.1 µM | the concentration of NO ([3]; kinsenoside 100 μM): 8.4 ± 1.7 µM | amount of NF-κB that enters into the nuclei [4]: reduces the amount of NF-κB that enters into the nuclei | ALP activity ([5]; 10 nM, 3 days): 112 ± 11% | ALP activity ([5]; 10 nM, 5 days): 120 ± 18% | ALP activity ([5]; 10 nM, 10 days): 125 ± 6% | ALP activity ([5]; 100 nM, 3 days): 124 ± 17% | ALP activity ([5]; 100 nM, 5 days): 126 ± 17% | ALP activity ([5]; 100 nM, 10 days): 137 ± 16% | ALP activity ([5]; 1000 nM, 3 days): 130 ± 21% | ALP activity ([5]; 1000 nM, 5 days): 132 ± 16 % | ALP activity ([5]; 1000 nM, 10 days): 150 ± 23 % | expression of nitric oxide synthase ([6]; FIG. 2A and 2B): reduce the expression of nitric oxide synthase | p50 and p65 entering into the nuclei ([6]; FIG. 3A to 3C): this effect can be inhibited by kinsenoside | IL-1β [7, 10]: 371.1 ± 127.8 ng/mL | TNF-α [7, 10]: 680.5 ± 160.2 ng/mL | IL-1β [7, 11]: 272.6 ± 102.6 ng/mL | TNF-α [7, 11]: 513.4 ± 155.0 ng/mL
